From patent US20090325952A1, “PYRAZOLO[3,4-B]PYRIDINE COMPOUNDS, AND THEIR USE AS PDE4 INHIBITORS” (Glaxo Group Limited, priority 2006, published 2009)
Counter-ions that a name gives are not always drawn.

Tests used:
[1] = target: T1, PDE4B (human recombinant) (Homo sapiens, UniProt Q07343); experiment: Inhibition of PDE4B activity (FP and/or SPA assay); assay type: biochemical; settings: generally FP assay; one reading or average of n readings; read-out: PDE4B pIC50 (generally in FP assay) (±about 0.5) (converted)
T1 construct: made in house; host or cells: Saccharomyces cerevisiae strain GL62 (PDE-deficient yeast)
Excerpt: Human recombinant PDE4B, in particular the 2B splice variant thereof (HSPDE4B2B), is disclosed in WO 94/20079 and also M. M. McLaughlin et al., “A low Km, rolipram-sensitive, cAMP-specific phosphodiesterase from human brain: cloning and expression of cDNA, biochemical characterisation of recombinant protein, and tissue distribution of mRNA”, J. Biol. Chem., 1993, 268, 6470-6476. For example, in Example 1 of WO 94/20079, human recombinant PDE4B is described as being expressed in the PDE-deficient yeast Saccharomyces cerevisiae strain GL62, e.g. after induction by addition of 150 uM CuSO4, and 100,000×g supernatant fractions of yeast cell lysates are described for use in the harvesting of PDE4B enzyme.
The ability of compounds to inhibit catalytic activity at PDE4B or 4D (human recombinant), PDE3 (from bovine aorta), PDE5 (human recombinant) or PDE6 (from bovine retina) can optionally be determined by Scintillation Proximity Assay (SPA) in a 96-well format.
Test compounds (as a solution in DMSO, suitably about 2 microlitre (ul) volume of DMSO solution) are preincubated at ambient temperature (room temperature, e.g. 19-23° C.) in Wallac Isoplates (code 1450-514) with PDE enzyme in 50 mM Tris-HCl buffer pH 7.5, 8.3 mM MgCl2, 1.7 mM EGTA, 0.05% (w/v) bovine serum albumin for 10-30 minutes (usually 30 minutes). The enzyme concentration is adjusted so that no more than 20% hydrolysis of the substrate defined below occurs in control wells without compound, during the incubation. For the PDE3, PDE4B and PDE4D assays, [5′,8-^3H]Adenosine 3′,5′-cyclic phosphate (Amersham Pharmacia Biotech, code TRK.559; or Amersham Biosciences UK Ltd, Pollards Wood, Chalfont St Giles, Buckinghamshire HP8 4SP, UK) is added to give 0.05uCi per well and about 10 nM final concentration. For the PDE5 and PDE6 assays, [8^−3H]Guanosine 3′,5′-cyclic phosphate (Amersham Pharmacia Biotech, code TRK.392) is added to give 0.05uCi per well and about 36 nM final concentration. Plates containing assay mixture, suitably approx. 100 ul volume of assay mixture, are mixed on an orbital shaker for 5 minutes and incubated at ambient temperature for 1 hour. Phosphodiesterase SPA beads (Amersham Pharmacia Biotech, code RPNQ 0150) are added (about 1 mg per well) to terminate the assay. Plates are sealed and shaken and allowed to stand at ambient temperature for 35 minutes to 1 hour (suitably 35 minutes) to allow the beads to settle. Bound radioactive product is measured using a WALLAC TRILUX 1450 Microbeta scintillation counter. For inhibition curves, 10 concentrations (e.g. 1.5 nM-30 uM) of each compound are assayed. Curves are analysed using ActivityBase and XLfit (ID Business Solutions Limited, 2 Ocean Court, Surrey Research Park, Guildford, Surrey GU2 7QB, United Kingdom) Results are expressed as pIC50 values.
The ability of compounds to inhibit catalytic activity at PDE4B (human recombinant) or PDE4D (human recombinant) can optionally be determined by IMAP Fluorescence Polarisation (FP) assay (IMAP Explorer kit, available from Molecular Devices Corporation, Sunnydale, Calif., USA; Molecular Devices code: R8062) in 384-well format.
The IMAP FP assay is able to measure PDE activity in an homogenous, non-radioactive assay format. The FP assay uses the ability of immobilised trivalent metal cations, coated onto nanoparticles (tiny beads), to bind the phosphate group of Fl-AMP that is produced on the hydrolysis of fluorescein-labelled (Fl) cyclic adenosine mono-phosphate (Fl-cAMP) to the non-cyclic Fl-AMP form. […] Binding of Fl-AMP product to the beads (coated with the immobilised trivalent cations) slows the rotation of the bound Fl-AMP and leads to an increase in the fluorescence polarisation ratio of parallel to perpendicular light. Inhibition of the PDE reduces/inhibits this signal increase. […]

[2] = tested on: LPS-induced pulmonary neutrophilia in rats; experiment: In Vivo Assay 1: LPS induced pulmonary neutrophilia in rats, intratracheal administration; parameters: species or system rat; settings: preliminary tests
Excerpt: This assay is an animal model of acute inflammation in the lung—specifically neutrophilia induced by lipopolysaccharide (LPS)—and allows the study of putative inhibition of such neutrophilia (anti-inflammatory effect) by an intratracheally (i.t.) administered PDE4 inhibitor (“drug”). The PDE4 inhibitors are suitably in dry powder, aqueous solution or aqueous suspension form. I.t. administration is one model of inhaled administration, allowing topical delivery to the lung.
Animals: Male CD (Sprague Dawley Derived) rats supplied by Charles River, United Kingdom are housed in groups of 5 rats per cage, acclimatised after delivery for at least 7 days with bedding/nesting material regularly changed, fed on SDS diet R1 pelleted food given ad lib, and supplied with daily-changed pasteurised animal grade drinking water.
Device for dry powder administration: For these studies, a Penn Century DP-4 dry powder intratracheal (i.t.) delivery device (insufflator) is used for administration of a dry powder blend of vehicle (inhalation grade lactose) and the PDE4 inhibitor compound or salt of the invention (“drug”). Each device is numbered and the sample loading chamber is unscrewed from the main device and weighed. The i.t. delivery needle is also weighed. The drug+lactose blend or inhalation grade lactose (vehicle control) is then added to the sample chamber and this is then re-weighed. The sample chamber is fitted back on to the main device to prevent any drug being lost. This procedure is repeated for all of the Penn century devices to be used in the study (one separate device for each animal). After dosing to the animals, the sample chambers and needles are re-weighed in order to determine the amount of sample that was expelled from the device.
Device for aqueous solution administration: A blunt dosing needle, whose forward end is slightly angled to the needle axis, is used, with a flexible plastic portex canula inserted into the needle. The portex cannula is inserted into the lumen of the blunt stainless steel dosing needle and this is carefully inserted into the back of the animal's throat and into the trachea via the larynx. A known volume (200 microlitres) of the vehicle (0.2% Tween 80™ in saline) or of the solution (or suspension) drug composition is administered into the trachea using a plastic syringe that is attached to the portex cannula and dosing needle. A new internal cannula is used for each different drug group. After dosing, the needle is removed from the trachea and the animals are removed from the table and continually observed until they recover from the effects of anaesthesia. The animals are then returned to the holding cages and given free access to food and water, and are observed and any unusual behavioural changes noted. (Aqueous suspensions can be handled generally similarly.)
Drugs and Materials: Lipopolysaccharide (LPS) (Serotype:0127:B8, e.g. from Sigma, UK; e.g. L3129 prepared by phenol extraction) is dissolved in phosphate-buffered saline (PBS).
For dry powder, aqueous solution or aqueous suspension administration, PDE4 inhibitors are preferably used in size-reduced (e.g. micronised) form, for example according to the Micronisation Example(s) disclosed herein.
For dry powder administration of the drug, the PDE4 inhibitor compound or salt of the invention (drug) is administered as a dry powder blended with inhalation-grade (respiratory-grade) lactose, i.e. as a dry powder composition. The target quantity of dry powder composition administered i.t. to each animal is 2 mg. This remains constant throughout the studies. To achieve different doses, blends of the drug dry powder and lactose, containing different concentrations of the PDE4 inhibitor compound or salt of the invention (drug), are prepared. […]

T1 sequence (Q07343 1-564 isoform Q07343-2): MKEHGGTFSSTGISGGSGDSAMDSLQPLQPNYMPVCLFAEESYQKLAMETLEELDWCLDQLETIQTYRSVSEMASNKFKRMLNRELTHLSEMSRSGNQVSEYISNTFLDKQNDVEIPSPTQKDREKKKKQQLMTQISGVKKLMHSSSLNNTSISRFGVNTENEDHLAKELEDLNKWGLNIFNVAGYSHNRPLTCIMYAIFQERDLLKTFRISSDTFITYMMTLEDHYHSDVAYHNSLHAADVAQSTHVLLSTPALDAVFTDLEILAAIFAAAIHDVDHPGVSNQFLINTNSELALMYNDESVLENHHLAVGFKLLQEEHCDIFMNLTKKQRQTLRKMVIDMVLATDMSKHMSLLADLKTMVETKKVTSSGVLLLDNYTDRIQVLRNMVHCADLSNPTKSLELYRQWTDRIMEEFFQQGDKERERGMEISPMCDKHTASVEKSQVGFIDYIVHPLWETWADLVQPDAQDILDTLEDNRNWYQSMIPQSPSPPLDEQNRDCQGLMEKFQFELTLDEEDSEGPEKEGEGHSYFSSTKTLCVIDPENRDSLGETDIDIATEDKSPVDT

| Compound | IC50 [1] [pM] | duration of action in i.t. rat LPS-induced neutrophilia model ([2]; after i.t. administration to the rat as a dry powder) [h] | duration of action in i.t. rat LPS-induced neutrophilia model ([2]; after i.t. administration to the rat as an aqueous solution) [h] |
| --- | --- | --- | --- |
| CCc1nc2c(cnn2CC)c(NC2CCOCC2)c1CNC(=O)c1ccc(NC(=O)CCCCCCCN(C)CCO)cc1 [Example 1C, N-{[1,6-diethyl-4-(tetrahydro-2H-pyran-4-ylamino)-1H-pyrazolo[3,4-b]pyridin-5-yl]methyl}-4-({8-[(2-hydroxyethyl)(methyl)amino]octanoyl}amino)benzamide] | ~50.1 |  |  |
| CCc1nc2c(cnn2CC)c(NC2CCOCC2)c1CNC(=O)c1ccc(CCCCOCCCCN2CCOCC2)cc1 [Example 20, formate salt of N-{[1,6-diethyl-4-(tetrahydro-2H-pyran-4-ylamino)-1H-pyrazolo[3,4-b]pyridin-5-yl]methyl}-4-(4-{[4-(4-morpholinyl)butyl]oxy}butyl)benzamide] | ~100 |  |  |
| CCc1nc2c(cnn2CC)c(NC2CCOCC2)c1CNC(=O)c1ccc(CCCCOCCCCN2CCCC2)cc1 [Example 21, formate salt of N-{[1,6-diethyl-4-(tetrahydro-2H-pyran-4-ylamino)-1H-pyrazolo[3,4-b]pyridin-5-yl]methyl}-4-(4-{[4-(1-pyrrolidinyl)butyl]oxy}butyl)benzamide] | ~63.1 |  |  |
| CCc1nc2c(cnn2CC)c(NC2CCOCC2)c1CNC(=O)c1ccc(NC(=O)CCCCCN(C)CCO)cc1 [Example 31, N-{[1,6-diethyl-4-(tetrahydro-2H-pyran-4-ylamino)-1H-pyrazolo[3,4-b]pyridin-5-yl]methyl}-4-({6-[(2-hydroxyethyl)(methyl)amino]hexanoyl}amino)benzamide] | ~79.4 |  |  |
| CCc1nc2c(cnn2CC)c(NC2CCOCC2)c1CNC(=O)c1ccc(NC(=O)CCCCCCCCCCN(C)CCO)cc1 [Example 34, N-{[1,6-diethyl-4-(tetrahydro-2H-pyran-4-ylamino)-1H-pyrazolo[3,4-b]pyridin-5-yl]methyl}-4-({11-[(2-hydroxyethyl)(methyl)amino]undecanoyl}amino)benzamide] | ~1000 |  |  |
| CCc1nc2c(cnn2CC)c(NC2CCOCC2)c1CNC(=O)c1ccc(NC(=O)CCCCCCCN(C)CCO)cc1 [N-{[1,6-diethyl-4-(tetrahydro-2H-pyran-4-ylamino)-1H-pyrazolo[3,4-b]pyridin-5-yl]methyl}-4-({8-[(2-hydroxyethyl)(methyl)amino]octanoyl}amino)benzamide] |  | 4 | ≥ 2 |

More lines, main results first:

| IC50 [1] [pM] | Compound | duration of action in i.t. rat LPS-induced neutrophilia model ([2]; after i.t. administration to the rat as a dry powder) [h] | duration of action in i.t. rat LPS-induced neutrophilia model ([2]; after i.t. administration to the rat as an aqueous solution) [h] |
| --- | --- | --- | --- |
| ~50.1 | CCc1nc2c(cnn2CC)c(NC2CCOCC2)c1CNC(=O)c1ccc(NC(=O)CCCCCCCN2CCC[C@@H]2COC)cc1 [Example 11, N-{[1,6-diethyl-4-(tetrahydro-2H-pyran-4-ylamino)-1H-pyrazolo[3,4-b]pyridin-5-yl]methyl}-4-[(8-{(2R)-2-[(methyloxy)methyl]-1-pyrrolidinyl}octanoyl)amino]benzamide trifluoroacetate] |  |  |
| ~31.6 | CCc1nc2c(cnn2CC)c(NC2CCOCC2)c1CNC(=O)c1ccc(NC(=O)CCCCCCCN2CCC[C@H]2COC)cc1 [Example 12, N-{[1,6-diethyl-4-(tetrahydro-2H-pyran-4-ylamino)-1H-pyrazolo[3,4-b]pyridin-5-yl]methyl}-4-[(8-{(2S)-2-[(methyloxy)methyl]-1-pyrrolidinyl}octanoyl)amino]benzamide trifluoroacetate] |  |  |
| ~158 | CCc1nc2c(cnn2CC)c(NC2CCOCC2)c1CNC(=O)c1ccc(NC(=O)CCCCCCCN2CCOCC2)cc1 [Example 17, formate salt of N-{[1,6-diethyl-4-(tetrahydro-2H-pyran-4-ylamino)-1H-pyrazolo[3,4-b]pyridin-5-yl]methyl}-4-{[8-(4-morpholinyl)octanoyl]amino}benzamide] |  |  |
